Measured values reported in PMC10992857, “Chemoenzymatic access to enantiopure N-containing furfuryl alcohol from chitin-derived N-acetyl-D-glucosamine” (Bioresources and Bioprocessing, 2021).

Tests used:
[1] = system: T1, ScCR; carbonyl reductase from Streptomyces coelicolor; experiment: kinetics of asymmetric ketone reduction; assay type: biochemical; conditions: co-substrate NADH; full assay conditions in supplement Table S3
T1 construct: pET28a, His-tag purified from E. coli BL21(DE3); NADH-dependent

[2] = system: T2, YueD; carbonyl reductase from Bacillus sp. ECU0013; experiment: kinetics of asymmetric ketone reduction; assay type: biochemical; conditions: co-substrate NADPH; full assay conditions in supplement Table S3
T2 construct: pET28a, His-tag purified from E. coli BL21(DE3); NADPH-dependent
Description: kinetics of asymmetric ketone reduction on YueD; carbonyl reductase from Bacillus sp.

CC(=O)Nc1coc(C(C)=O)c1 [3A5AF, 3-Acetamido-5-acetylfuran]
Km [1]: 6.3 mM | Km [2]: 0.5 mM
